This assay relates to BDF1 mice, P388 leukemia ip, median survival T/C. Put plainly: NCI In Vivo Anticancer Drug Screen. Data for tumor model P388 Leukemia (intraperitoneal) in B6D2F1 (BDF1) mice. The settings on record: endpoint: median survival time, higher = longer survival. The method in brief: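 Antitumour effect was judged in vivo: survival in drug-treated mice, normalised to that of vehicle-dosed controls, gives the reported T/C.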

The mark [1] stands for this setting: dose: 50.0 mg/kg/injection, schedule: Q01DX009 (ip), vehicle: Klucel (hydroxypropylcellulose) (HPC).
Setting [2] is: dose: 50.0 mg/kg/injection, schedule: Q01DX009 (ip), vehicle: saline with Tween-80.
Where [3] appears, read: dose: 100.0 mg/kg/injection, schedule: Q01DX009 (ip), vehicle: Klucel (hydroxypropylcellulose) (HPC).
[4] abbreviates: dose: 100.0 mg/kg/injection, schedule: Q04DX003 (ip), vehicle: Klucel (hydroxypropylcellulose) (HPC).
[5] abbreviates: dose: 200.0 mg/kg/injection, schedule: Q04DX003 (ip), vehicle: Klucel (hydroxypropylcellulose) (HPC).

Where “and” joins values, the source holds several entries; their conditions need not be identical. Equal entries are not always repeated. Toxic doses and inconclusive results are not listed.

Regarding `COc1cccc2c1C(=O)c1c(O)c3c(c(O)c1C2=O)C[C@@](O)(/C(C)=N\NC=O)C[C@@H]3OC1CC(N)C(O)C(C)O1` (stereo partly specified), the T/C is 96 % of control (dose: 1.0 mg/kg/injection, schedule: Q01DX009 (ip), vehicle: saline); 107 % of control (dose: 2.0 mg/kg/injection, schedule: Q01DX009 (ip), vehicle: saline); 180 % of control (dose: 16.0 mg/kg/injection, schedule: Q01DX009 (ip), vehicle: saline).

On to `CC(=O)Nc1cccc(Cl)c1C`, for which the T/C (dose: 8.25 mg/kg/injection, schedule: Q01DX009 (ip), vehicle: saline with Tween-80) is 100 % of control; the T/C (dose: 12.4 mg/kg/injection, schedule: Q01DX009 (ip), vehicle: saline with Tween-80) is 104 % of control; the T/C (dose: 18.7 mg/kg/injection, schedule: Q01DX009 (ip), vehicle: saline with Tween-80) was 100 % of control; the T/C (dose: 28.2 mg/kg/injection, schedule: Q01DX009 (ip), vehicle: saline with Tween-80) was 100 % of control; the T/C under setting [1] is 100 % of control; the T/C under setting [2] is 100 % of control. The T/C was 100 % of control under setting [3]; 95 % of control (dose: 100.0 mg/kg/injection, schedule: Q04DX003 (ip), vehicle: saline with Tween-80); 86 % of control (dose: 200.0 mg/kg/injection, schedule: Q01DX009 (ip), vehicle: Klucel (hydroxypropylcellulose) (HPC)); 100 % of control (dose: 200.0 mg/kg/injection, schedule: Q04DX003 (ip), vehicle: saline with Tween-80); 100 % of control (dose: 400.0 mg/kg/injection, schedule: Q04DX003 (ip), vehicle: saline with Tween-80).

Take `O=C(O)CNC(=O)CCl`: the T/C by setting is: (dose: 25.0 mg/kg/injection, schedule: Q01DX009 (ip), vehicle: Klucel (hydroxypropylcellulose) (HPC)) 110 % of control; under setting [1], 120 % of control; under setting [3], 120 % of control; (dose: 225.0 mg/kg/injection, schedule: Q01DX009 (ip), vehicle: Klucel (hydroxypropylcellulose) (HPC)) 86 % of control.

For the compound `Clc1ccc(-n2nnc3cc(Cl)ccc32)c(Cl)c1`, where the note is “dose: 100.0 mg/kg/injection, schedule: Q01DX009 (ip), vehicle: saline with Tween-80”, the T/C was 99 % of control.

For `COCCCN=C(N)c1ccc(NC(=O)c2ccc(C(=O)Nc3ccc(C(N)=NCCCOC)cc3)cc2)cc1`, the T/C is 120 % of control (dose: 0.22 mg/kg/injection, schedule: Q01DX009 (ip), vehicle: saline with Tween-80); 116 % of control (dose: 0.5 mg/kg/injection, schedule: Q01DX009 (ip), vehicle: saline with Tween-80); 150 % of control (dose: 0.66 mg/kg/injection, schedule: Q01DX009 (ip), vehicle: saline with Tween-80); 156 % of control (dose: 1.0 mg/kg/injection, schedule: Q01DX009 (ip), vehicle: saline with Tween-80); 176 % of control (dose: 1.5 mg/kg/injection, schedule: Q01DX009 (ip), vehicle: saline with Tween-80); 118 % of control (dose: 1.78 mg/kg/injection, schedule: Q04DX003 (ip), vehicle: saline with Tween-80). In addition, the T/C is 194 % of control (dose: 2.25 mg/kg/injection, schedule: Q01DX009 (ip), vehicle: saline with Tween-80); 231 % of control (dose: 3.75 mg/kg/injection, schedule: Q01DX009 (ip), vehicle: saline with Tween-80); 122 % of control (dose: 4.0 mg/kg/injection, schedule: Q04DX003 (ip), vehicle: saline with Tween-80); 113 % of control (dose: 7.5 mg/kg/injection, schedule: Q01DX009 (ip), vehicle: saline with Tween-80); 90 % of control (dose: 15.0 mg/kg/injection, schedule: Q01DX009 (ip), vehicle: saline with Tween-80); 159 % of control (dose: 15.0 mg/kg/injection, schedule: Q04DX003 (ip), vehicle: saline with Tween-80).

As for `N#CC(C#N)=Cc1cccc2ccccc12`, the T/C runs as follows: under setting [4], 104 % of control; under setting [5], 100 % of control; (dose: 400.0 mg/kg/injection, schedule: Q04DX003 (ip), vehicle: Klucel (hydroxypropylcellulose) (HPC)) 113 % of control.

`COc1cc(NC(N)=O)cc(OC)c1OC`: the T/C runs as follows: (dose: 18.75 mg/kg/injection, schedule: Q04DX003 (ip), vehicle: saline sonified) 100 % of control; (dose: 37.5 mg/kg/injection, schedule: Q04DX003 (ip), vehicle: saline sonified) 86 % of control; (dose: 75.0 mg/kg/injection, schedule: Q04DX003 (ip), vehicle: saline sonified) 100 % of control.

Regarding `C#CCOc1ccccc(Br)c1=O`, the T/C was 115 % of control (dose: 50.0 mg/kg/injection, schedule: Q04DX002 (ip), vehicle: saline with Tween-80); 104 % of control (dose: 100.0 mg/kg/injection, schedule: Q04DX002 (ip), vehicle: saline with Tween-80); 106 % of control (dose: 200.0 mg/kg/injection, schedule: Q04DX002 (ip), vehicle: saline with Tween-80).

`Cc1c(C)c(N)c(C)c(C)c1N`: the T/C was 91 % of control (dose: 3.0 mg/kg/injection, schedule: Q01DX009 (ip), vehicle: Klucel (hydroxypropylcellulose) (HPC)); 108 % of control (dose: 3.0 mg/kg/injection, schedule: Q04DX003 (ip), vehicle: Klucel (hydroxypropylcellulose) (HPC)); 87 % of control (dose: 6.0 mg/kg/injection, schedule: Q01DX009 (ip), vehicle: Klucel (hydroxypropylcellulose) (HPC)); 100 % of control (dose: 6.0 mg/kg/injection, schedule: Q04DX003 (ip), vehicle: Klucel (hydroxypropylcellulose) (HPC)); 95 % of control (dose: 12.0 mg/kg/injection, schedule: Q01DX009 (ip), vehicle: Klucel (hydroxypropylcellulose) (HPC)); 91 % of control (dose: 12.0 mg/kg/injection, schedule: Q04DX003 (ip), vehicle: Klucel (hydroxypropylcellulose) (HPC)).

In the case of `O=C1C(N2CC2)=C(N2CC2)C(=O)C(N2CC2)=C1N1CC1`, the T/C runs as follows: (dose: 0.02 mg/kg/injection, schedule: Q01DX009 (ip), vehicle: saline) 232 % of control and 307 % of control; (dose: 0.04 mg/kg/injection, schedule: Q01DX009 (ip), vehicle: saline) 201 % of control; (dose: 0.04 mg/kg/injection, schedule: Q04DX003 (ip), vehicle: saline with Tween-80) 114 % of control; (dose: 0.06 mg/kg/injection, schedule: Q04DX003 (ip), vehicle: saline with Tween-80) 118 % of control; (dose: 0.07 mg/kg/injection, schedule: Q04DX003 (ip), vehicle: saline with Tween-80) 109 % of control; (dose: 0.08 mg/kg/injection, schedule: Q01DX009 (ip), vehicle: saline) 109 % of control. Further, the T/C was 200 % of control (dose: 0.11 mg/kg/injection, schedule: Q04DX003 (ip), vehicle: other); 185 % of control (dose: 0.15 mg/kg/injection, schedule: Q04DX003 (ip), vehicle: saline with Tween-80); 186 % of control (dose: 0.25 mg/kg/injection, schedule: Q04DX003 (ip), vehicle: other); 163 % of control (dose: 0.25 mg/kg/injection, schedule: Q04DX003 (ip), vehicle: saline with Tween-80); 150 % of control (dose: 6.6 micrograms/kg/injection, schedule: Q01DX009 (ip), vehicle: saline with Tween-80); 175 % of control (dose: 10.0 micrograms/kg/injection, schedule: Q01DX009 (ip), vehicle: saline with Tween-80). Moreover, the T/C runs as follows: (dose: 20.0 micrograms/kg/injection, schedule: Q01DX009 (ip), vehicle: saline with Tween-80) 164 % of control; (dose: 30.0 micrograms/kg/injection, schedule: Q01DX009 (ip), vehicle: saline with Tween-80) 164 % of control; (dose: 31.3 micrograms/kg/injection, schedule: Q01DX009 (ip), vehicle: saline with Tween-80) 156 % of control; (dose: 45.0 micrograms/kg/injection, schedule: Q01DX009 (ip), vehicle: saline with Tween-80) 268 % of control; (dose: 62.5 micrograms/kg/injection, schedule: Q01DX009 (ip), vehicle: saline with Tween-80) 87 % of control; (dose: 125.0 micrograms/kg/injection, schedule: Q01DX009 (ip), vehicle: saline with Tween-80) 86 % of control.

Take `O=C(O)c1ccccc1C(=O)Nc1ccc([N+](=O)[O-])cc1Cl`: the T/C is, setting by setting: (dose: 50.0 mg/kg/injection, schedule: Q04DX003 (ip), vehicle: Klucel (hydroxypropylcellulose) (HPC)) 100 % of control; under setting [4], 100 % of control; under setting [5], 95 % of control.

With `O=c1[nH]ncc2[nH]cnc12`, the T/C is, setting by setting: (dose: 6.25 mg/kg/injection, schedule: Q01DX009 (ip), vehicle: saline with Tween-80) 98 % of control; (dose: 12.5 mg/kg/injection, schedule: Q01DX009 (ip), vehicle: saline with Tween-80) 107 % of control; (dose: 25.0 mg/kg/injection, schedule: Q01DX009 (ip), vehicle: saline with Tween-80) 91 % of control; under setting [2], 104 % of control.
